Like-named read-outs stand apart in the source and are kept apart here. *1 amine or outer side, *2 acyl side, *3 side chain or, on linkers, in order; H or OH if unused. Where a SMILES comes first, the peptide text is derived from it. Bridges are numbered along the chain shown (N, C = ends). Where no end group is shown, it is not given here. [ ]: non-standard residue; d: D form. ξ: configuration not given here. ξαMeNle(6-ylidene) = CC(CCCC=[*:3])(N[*:1])C(=O)[*:2]; X1 = CC(CCCCCCC=[*:3])(N[*:1])C(=O)[*:2]
Columns and labels:
[1] = test system: RG1, epithelial (glioblastoma, GMB)
Experimental: Alamar Blue: 10 μl Alamar Blue solution was added to each well and the plates were incubated for 4 in the incubator. Fluorescence ratio at 535/590 (excitation/emission) was measured in Cytofluor (Millipore) fluorimeter. Blank control was determined by lysis of untreated cells with con 2% of Triton X100, right before adding Alamar Blue solution.

[2] = test system: 12O53, epithelial (glioblastoma, GMB); format: cell-based, human
Source text: [drawing 12] a L birradical corresponding to -(CH2)3-CH═CH-(CH2)3- (for the case of NS02) or -(CH2)6-CH═CH-(CH2)3- (for the cases NS10, NS16 and Na05) links both Xs radicals in each sequence, and CPP2 corresponds to penetratine peptide. Cell Lines: NCI-H524, lung (small cell lung cancer, SCLC), ATCC-CRL-5831 RG1, epithelial (glioblastoma, GMB), from surgical specimens from patients GMB-27, epithelial (glioblastoma, GMB), from surgical specimens from patients 12O15, epithelial (glioblastoma, GMB), from surgical specimens from patients 12O53, epithelial (glioblastoma, GMB), from surgical specimens from patients 12O89, epithelial (glioblastoma, GMB), from surgical specimens from patients RG6, epithelial (glioblastoma, GMB), from surgical specimens from patients RG4, epithelial (glioblastoma, GMB), from surgical specimens from patients RG5, epithelial (glioblastoma, GMB), from surgical specimens from patients Cell Culture During the amplification step and the assays adherent cells were rinsed with DPBS (Dulbecco's Phosphate Buffered Saline, Sigma D1283) three times and afterward treated for 5 minutes with trypsin ([0.5 g/ml]/EDTA [0.2 g/ml]) (Gibco-BRL, 15400054) in solution of DPBS at 37° C., and, once detached, transferred in the culturing medium. No-adherent cells were dissociated with Accumax, centrifuged and transferred in the culturing medium. Cells were counted in a Neubauer chamber after labelling with Tripan-Blue. […] NCI-H524 were seeded at a density of 2500 cells/well in 96 well plates; […]6, 12015, 12089 and GBM-27 were dissociated with Accumax and plate on p96 wells covered with Matrigel. After 24 h, the compounds to be tested were added to calculate the dose/response curve at the starting concentration of 100 μM with serial dilutions (1:1). Controls are the untreated cells. Each experiment was performed in triplicate. Cells were incubated during 72-96 h in incubator under CO2 atmosphere at 37° C. Cell viability was measured by means of Alamar Blue® (Biosource DAL1100) and […], after treatment with Propidium iodide and Hoechst (GE Healthcare), following manufacturer instructions. Alamar Blue: 10 μl Alamar Blue solution was added to each well and the plates were incubated for […] in the incubator. Fluorescence ratio at 535/590 (excitation/emission) was measured in Cytofluor (Millipore) fluorimeter. Blank control was determined by lysis of untreated cells with con 2% of Triton X100, right before adding Alamar Blue solution. […] of propidium iodide and/or Hoechst solution was added to each well and the plates were incubated for 10 minutes protected by light. Control samples were represented by untreated cells and cell treated with 100% DMSO. Fluorescent stained cells which corresponds to death cells were detected by Cytell Imaging System and their amount calculated. % Viability=Number of non-blue cells×100/Number of total cells Statistics Data analysis was performed calculating the percentage of cell viability normalized vs. the values of negative control, which was considered equal to 100%. The dose/response curve was fitted through the sigmoidal equation dose-response (variable slope) and the EC50 values were calculated as follow: Y=Bottom+(Top-Bottom)/(1+10^{[(Log EC50-X)*HillSlope]}, where: X is compound concentration (log scale) and Y is the response

tumor cell lines = test: Anti-cancer activity in tumor cell lines (summary statements); format: cell-based
Experimental: NCI-H524 were seeded at a density of 2500 cells/well in 96 well plates; […]6, 12015, 12089 and GBM-27 were dissociated with Accumax and plate on p96 wells covered with Matrigel. After 24 h, the compounds to be tested were added to calculate the dose/response curve at the starting concentration of 100 μM with serial dilutions (1:1). Controls are the untreated cells. Each experiment was performed in triplicate. Cells were incubated during 72-96 h in incubator under CO2 atmosphere at 37° C. Cell viability was measured by means of Alamar Blue® (Biosource DAL1100) and […], after treatment with Propidium iodide and Hoechst (GE Healthcare), following manufacturer instructions. Data analysis was performed calculating the percentage of cell viability normalized vs. the values of negative control, which was considered equal to 100%. The dose/response curve was fitted through the sigmoidal equation dose-response (variable slope) and the EC50 values were calculated as follow: Y=Bottom+(Top-Bottom)/(1+10^{[(Log EC50-X)*HillSlope]}, where: X is compound concentration (log scale) and Y is the response

[3] = test system: 12O15, epithelial (glioblastoma, GMB); format: cell-based, human
Source text: (§1) [drawing 12] a L birradical corresponding to —(CH2)3—CH═CH—(CH2)3— (for the case of NS02) or —(CH2)6—CH═CH—(CH2)3— (for the cases NS10, NS16 and Na05) links both Xs radicals in each sequence, and CPP2 corresponds to penetratine peptide. Cell Lines: NCI-H524, lung (small cell lung cancer, SCLC), ATCC-CRL-5831 RG1, epithelial (glioblastoma, GMB), from surgical specimens from patients GMB-27, epithelial (glioblastoma, GMB), from surgical specimens from patients 12O15, epithelial (glioblastoma, GMB), from surgical specimens from patients 12O53, epithelial (glioblastoma, GMB), from surgical specimens from patients 12O89, epithelial (glioblastoma, GMB), from surgical specimens from patients RG6, epithelial (glioblastoma, GMB), from surgical specimens from patients RG4, epithelial (glioblastoma, GMB), from surgical specimens from patients RG5, epithelial (glioblastoma, GMB), from surgical specimens from patients Cell Culture
(§2) Cell lines NCI-H524 were cultured in incubator at 37° C. in RPMI-1640 (Sigma R8758) medium with 10% of fetal bovine serum inactivated (FBS) and 2 mM glutamine (Sigma G7513). Cell line RG1, RG4, RG5, RG6, 12015, 12089 and GBM-27 were cultured in incubator under CO2 (6%) at 37° C. in complete medium (Neurobasal+B27+Glutamax+Growth factors).
(§3) During the amplification step and the assays adherent cells were rinsed with DPBS (Dulbecco's Phosphate Buffered Saline, Sigma D1283) three times and afterward treated for 5 minutes with trypsin ([0.5 g/ml]/EDTA [0.2 g/ml]) (Gibco-BRL, 15400054) in solution of DPBS at 37° C., and, once detached, transferred in the culturing medium. No-adherent cells were dissociated with Accumax, centrifuged and transferred in the culturing medium. Cells were counted in a Neubauer chamber after labelling with Tripan-Blue.
(§4) NCI-H524 were seeded at a density of 2500 cells/well in 96 well plates; RG1, RG4, RG5, RG6, 12015, 12089 and GBM-27 were dissociated with Accumax and plate on p96 wells covered with Matrigel. After 24 h, the compounds to be tested were added to calculate the dose/response curve at the starting concentration of 100 μM with serial dilutions (1:1). Controls are the untreated cells. Each experiment was performed in triplicate.
(§5) Cells were incubated during 72-96 h in incubator under CO2 atmosphere at 37° C. Cell viability was measured by means of Alamar Blue® (Biosource DAL1100) and CYTELL™, after treatment with Propidium iodide and Hoechst (GE Healthcare), following manufacturer instructions.
(§6) Alamar Blue: 10 μl Alamar Blue solution was added to each well and the plates were incubated for […] in the incubator. Fluorescence ratio at 535/590 (excitation/emission) was measured in Cytofluor (Millipore) fluorimeter. Blank control was determined by lysis of untreated cells with con 2% of Triton X100, right before adding Alamar Blue solution.
(§7) CYTELL™: 10 μl of propidium iodide and/or Hoechst solution was added to each well and the plates were incubated for 10 minutes protected by light. Control samples were represented by untreated cells and cell treated with 100% DMSO. Fluorescent stained cells which corresponds to death cells were detected by Cytell Imaging System and their amount calculated. % Viability=Number of non-blue cells×100/Number of total cells Statistics
(§8) Data analysis was performed calculating the percentage of cell viability normalized vs. the values of negative control, which was considered equal to 100%. The dose/response curve was fitted through the sigmoidal equation dose-response (variable slope) and the EC50 values were calculated as follow: Y=Bottom+(Top−Bottom)/(1+10^{[(Log EC50−X)*HillSlope]}, where: X is compound concentration (log scale) and Y is the response

[4] = test system: 12O89, epithelial (glioblastoma, GMB); format: cell-based, human
Source text: as §1, §2, §3, §4, §5, §6, §7, §8

[5] = test system: GBM27 (GMB-27), epithelial (glioblastoma); format: cell-based, human
Source text: as §1, §2, §3, §4, §5, §6, §7, §8

[6] = test system: RG4, epithelial (glioblastoma, GMB); format: cell-based, human
Source text: as §1, §2, §3, §4, §5, §6, §7, §8

[7] = test system: RG5, epithelial (glioblastoma, GMB); format: cell-based, human
Source text: as §1, §2, §3, §4, §5, §6, §7, §8

[8] = test system: RG6, epithelial (glioblastoma, GMB); format: cell-based, human
Source text: as §1, §2, §3, §4, §5, §6, §7, §8

[9] = test system: NCI-H524, lung (small cell lung cancer, SCLC)
Source text: Cell Lines: NCI-H524, lung (small cell lung cancer, SCLC), ATCC-CRL-5831 RG1, epithelial (glioblastoma, GMB), from surgical specimens from patients GMB-27, epithelial (glioblastoma, GMB), from surgical specimens from patients 12O15, epithelial (glioblastoma, GMB), from surgical specimens from patients 12O53, epithelial (glioblastoma, GMB), from surgical specimens from patients 12O89, epithelial (glioblastoma, GMB), from surgical specimens from patients RG6, epithelial (glioblastoma, GMB), from surgical specimens from patients RG4, epithelial (glioblastoma, GMB), from surgical specimens from patients RG5, epithelial (glioblastoma, GMB), from surgical specimens from patients Cell Culture […]
During the amplification step and the assays adherent cells were rinsed with DPBS (Dulbecco's Phosphate Buffered Saline, Sigma D1283) three times and afterward treated for 5 minutes with trypsin ([0.5 g/ml]/EDTA [0.2 g/ml]) (Gibco-BRL, 15400054) in solution of DPBS at 37° C., and, once detached, transferred in the culturing medium. […] Cells were counted in a Neubauer chamber after labelling with Tripan-Blue. […]
Cells were incubated during 72-96 h in incubator under CO2 atmosphere at 37° C. Cell viability was measured by means of Alamar Blue® (Biosource DAL1100) and CYTELL™, after treatment with Propidium iodide and Hoechst (GE Healthcare), following manufacturer instructions. […]

CC(C)C[C@H](NC(=O)[C@H](CC(=O)O)NC(=O)[C@H](CC(N)=O)NC(=O)[C@H](CCCNC(=N)N)NC(=O)[C@@H](N)CCCNC(=N)N)C(=O)N[C@@H](CCCNC(=N)N)C(=O)N[C@@H](CO)C(=O)NC1(C)CCCCCCC=CCCCC(C)(C(=O)N[C@H](C(=O)N2CCC[C@H]2C(N)=O)C(C)C)NC(=O)[C@H](CC(=O)O)NC(=O)[C@H](CCCNC(=N)N)NC(=O)[C@H](CC(C)C)NC(=O)[C@H]([C@@H](C)O)NC(=O)[C@H](CC(C)C)NC(=O)[C@H](Cc2ccccc2)NC1=O (stereo partly shown) [Na05] (H-RRNDLRS[X1]FLTLRD[ξαMeNle(6-ylidene)]VP-NH2; staple 8-15; N-terminus and C-terminus assumed)
EC50 [1]: ~10 µM

AAKVVILKKATEYVHS-NH2 (C-terminus assumed) [IDP-wtLN10, reference compound]
EC50 [2]: > 100 µM
inhibiting cancer cell proliferation (in words) (tumor cell lines): not effective
EC50 [1]: > 100 µM

CC(C)C[C@@H]1NC(=O)[C@H](Cc2ccccc2)NC(=O)[C@H](CO)NC(=O)[C@H](CO)NC(=O)C(C)(NC(=O)[C@H](CC(C)C)NC(=O)[C@H](CC(=O)O)NC(=O)[C@H](CC(N)=O)NC(=O)[C@H](CCCNC(=N)N)NC(=O)[C@H](CCCNC(=N)N)NC(=O)[C@H](CCC(N)=O)NC(=O)[C@@H](N)CCCNC(=N)N)CCCCCCC=CCCCC(C)(C(=O)N[C@@H](CC(=O)O)C(=O)N[C@@H](Cc2c[nH]cn2)C(N)=O)NC(=O)[C@H](CC(C)C)NC(=O)[C@H]([C@@H](C)O)NC1=O (stereo partly shown) [IDP-NS16] (H-RQRRNDL[X1]SSFLTL[ξαMeNle(6-ylidene)]DH-NH2; staple 8-15; N-terminus and C-terminus assumed)
EC50 [2]: ~10 µM
EC50 [1]: ~15 µM

RRRRRRRAAKVVILKKATEYVHS-NH2 (C-terminus assumed) [IDP-intwtLN10, reference compound]
EC50 [2]: > 100 µM
inhibiting cancer cell proliferation (in words) (tumor cell lines): inactive
EC50 [1]: > 100 µM

RQIKIWFQNRRMKWKKRQRRNDLRSSFLTLRDHVP-NH2 [NLCa02]
anti-cancer activity (in words) (tumor cell lines; tumor cell lines): anti-cancer activity
EC50 ([1]; RG1 cell line, 72-96 h incubation): ~5 µM

CC[C@H](C)[C@@H]1NC(=O)[C@H](C(C)C)NC(=O)[C@H](C(C)C)NC(=O)C(C)(NC(=O)[C@H](C)NC(=O)[C@H](C)N)CCCCCCC=CCCCC(C)(C(=O)N[C@H](C(=O)N[C@@H](CCC(=O)O)C(=O)N[C@@H](Cc2ccc(O)cc2)C(=O)N[C@H](C(=O)N[C@@H](Cc2c[nH]cn2)C(=O)N[C@@H](CO)C(N)=O)C(C)C)[C@@H](C)O)NC(=O)[C@H](CCCCN)NC(=O)[C@H](CCCCN)NC(=O)[C@H](CC(C)C)NC1=O (stereo partly shown) [IDP-NS10] (H-AA[X1]VVILKK[ξαMeNle(6-ylidene)]TEYVHS-NH2; staple 3-10; N-terminus and C-terminus assumed)
EC50 [3]: ~10 µM
EC50 [4]: ~4 µM
EC50 [5]: ~7.5 µM
EC50 [6]: ~5 µM
EC50 [7]: ~7 µM
EC50 [8]: ~5 µM
EC50 [2]: ~50 µM
EC50 [1]: ~7 µM

CC(C)C[C@H](NC(=O)[C@H](Cc1ccccc1)NC(=O)C1(C)CCCC=CCCCC(C)(NC(=O)[C@H](CC(N)=O)NC(=O)[C@H](CCCNC(=N)N)NC(=O)[C@H](CCCNC(=N)N)NC(=O)[C@H](CCC(N)=O)NC(=O)[C@@H](N)CCCNC(=N)N)C(=O)N[C@@H](CC(C)C)C(=O)N[C@@H](CCCNC(=N)N)C(=O)N[C@@H](CO)C(=O)N1)C(=O)N[C@H](C(=O)N[C@@H](CC(C)C)C(=O)N[C@@H](CCCNC(=N)N)C(=O)N[C@@H](CC(=O)O)C(=O)N[C@@H](Cc1c[nH]cn1)C(N)=O)[C@@H](C)O (stereo partly shown) [IDP-NS02] (H-RQRRN[ξαMeNle(6-ylidene)]LRS[ξαMeNle(6-ylidene)]FLTLRDH-NH2; staple 6-10; N-terminus and C-terminus assumed)
EC50 [2]: > 100 µM
EC50 [1]: > 100 µM
EC50 [9]: ~5 µM

Source: patent US11352395B2, “Anticancer peptides” (IDP DISCOVERY PHARMA, S.L., priority 2017, dated 2022)
